The source of these data is BigSolDB 2.1.

In general, solubility (mole fraction) refers to the moles of solute divided by all moles in the saturated solution.

Several values for one entry are separate records, joined by “and”; a condition that tells them apart may be missing. Equal values may be shown once.

On to `c1ccc2cc3ccccc3cc2c1`, for which the solubility (mole fraction) is, setting by setting: (in 2,2,4-trimethylpentane, 298.15 K) 0.00107; (in 2-butoxyethanol, 298.15 K) 0.00379; (in 2-ethoxyethanol, 298.15 K) 0.00292; (in 2-methoxyethanol, 298.15 K) 0.00221; (in 2-pentanol, 298.15 K) 0.0008; (in 2-propoxyethanol, 298.15 K) 0.00334. Moreover, the solubility (mole fraction) is 0.00305 (in MTBE, 298.15 K); 0.00155 (in cyclohexane, 298.15 K); 0.00047 (in isobutanol, 298.15 K); 0.000727 (in isopentanol, 298.15 K); 0.000411 (in isopropanol, 298.15 K); 0.00165 (in methylcyclohexane, 298.15 K). For the same molecule, the solubility (mole fraction) runs as follows: (in n-butanol, 298.15 K) 0.000801; (in n-heptane, 298.15 K) 0.00157 and 0.00158; (in n-hexane, 298.15 K) 0.00127; (in n-octane, 298.15 K) 0.00184; (in n-octanol, 298.15 K) 0.00216; (in n-pentanol, 298.15 K) 0.0011. The molecule also returned a solubility (mole fraction) (in n-propanol, 298.15 K) of 0.000591; a solubility (mole fraction) (in sec-butanol, 298.15 K) of 0.000585; a solubility (mole fraction) (in tert-amyl alcohol, 298.15 K) of 0.00079; a solubility (mole fraction) (in tetrahydropyran, 298.15 K) of 0.0102.
Consider `O=[N+]([O-])c1ccc(N/N=C/c2ccc[nH]2)cc1`, for which, under “in water, 298.15 K”, the solubility (mole fraction) worked out at 1.73e-07.
With `CCCN1CCCC[C@H]1C(=O)Nc1c(C)cccc1C`, the solubility (mole fraction) is, setting by setting: (in acetone, 278.15 K) 0.00654; (in acetone, 283.15 K) 0.00793; (in acetone, 288.15 K) 0.0098; (in acetone, 293.15 K) 0.012; (in acetone, 298.15 K) 0.0148; (in acetone, 303.15 K) 0.0184. The solubility (mole fraction) by setting is: (in acetone, 308.15 K) 0.023; (in acetone, 313.15 K) 0.0266; (in acetone, 318.15 K) 0.0344.
`O=c1cc(Cl)[nH]c(=O)[nH]1` showed a solubility (mole fraction) (in water, 298.15 K) of 0.000603.
As to `NCCS(=O)(=O)O`, the solubility (mole fraction) stood at 0.0143 (in water, 298.15 K); 0.0168 (in water, 303.15 K); 0.0199 (in water, 308.15 K); 0.0231 (in water, 313.15 K); 0.0269 (in water, 318.15 K).
For the molecule `C[N+](C)(C)CCOP(=O)([O-])OP(=O)([O-])OC[C@H]1O[C@@H](n2ccc(N)nc2=O)[C@H](O)[C@@H]1O.[Na+]`, the solubility (mole fraction) is 0.0211 (in water, 278.15 K); 0.0216 (in water, 281.15 K); 0.0224 (in water, 285.15 K); 0.0234 (in water, 289.15 K); 0.0248 (in water, 293.15 K); 0.0265 (in water, 298.15 K).
Where the note is “in water, 298.15 K”, `O=[N+]([O-])c1ccc(N/N=C/c2ccc[nH]2)c([N+](=O)[O-])c1` registered a solubility (mole fraction) of 1.6e-08.
The molecule `O=c1[nH]cc(I)c(=O)[nH]1` registered a solubility (mole fraction) (in water, 298.15 K) of 0.000373.
For the molecule `CC(C)C[C@H](CN)CC(=O)O`, the solubility (mole fraction) (in water, 283.15 K) was 0.00349; the solubility (mole fraction) (in water, 298.15 K) was 0.00373; the solubility (mole fraction) (in water, 308.15 K) is 0.00397; the solubility (mole fraction) (in water, 315.65 K) amounted to 0.00447; the solubility (mole fraction) (in water, 323.15 K) was 0.00486; the solubility (mole fraction) (in water, 328.15 K) came to 0.00531. Where the note is “in water, 338.15 K”, this molecule gave a solubility (mole fraction) of 0.00641.
For the molecule `Cc1ccc(-c2ncc(Cl)cc2-c2ccc(S(C)(=O)=O)cc2)cn1`, the solubility (mole fraction) stood at 0.0379 (in methanol, 298.2 K); 0.0605 (in propylene glycol, 298.2 K); 1.58e-05 (in water, 298.2 K).
As for `CC1(C)S[C@@H]2[C@H](N)C(=O)N2[C@H]1C(=O)O`, the solubility (mole fraction) was found to be 0.000132 (in water, 274.15 K); 0.000143 (in water, 278.15 K); 0.000159 (in water, 283.15 K); 0.000173 (in water, 289.15 K); 0.000183 (in water, 293.15 K); 0.000203 (in water, 298.15 K). The solubility (mole fraction) (in water, 303.15 K) is 0.000226.
With `Nc1ccc(Cl)nn1`, the solubility (mole fraction) (in water, 293.65 K) amounted to 6.28e-05; the solubility (mole fraction) (in water, 296.05 K) amounted to 7.6e-05; the solubility (mole fraction) (in water, 303.05 K) worked out at 0.000133; the solubility (mole fraction) (in water, 308.65 K) was determined as 0.000197; the solubility (mole fraction) (in water, 323.35 K) worked out at 0.000556; the solubility (mole fraction) (in water, 328.45 K) was found to be 0.000747. The solubility (mole fraction) (in water, 333.15 K) was found to be 0.000936.
For the setting “in water, 298.15 K”, `O=c1cc[nH]c(=O)[nH]1` displayed a solubility (mole fraction) of 0.000743.
Consider `O=[N+]([O-])c1ccc(N/N=C/c2ccco2)c([N+](=O)[O-])c1`, for which the solubility (mole fraction) (in water, 298.15 K) was found to be 1.4e-08.
As for `C(=N\Nc1ccccc1)/c1cccs1`, the solubility (mole fraction) (in water, 298.15 K) came out at 5.19e-07.
On to `CC(=O)OCC(=O)[C@@]12N=C(C)O[C@@H]1C[C@H]1[C@@H]3CCC4=CC(=O)C=C[C@]4(C)[C@H]3[C@@H](O)C[C@@]12C`, for which the solubility (mole fraction) runs as follows: (in acetone, 303.15 K) 0.00721; (in ethanol, 303.15 K) 0.0024; (in ethyl acetate, 303.15 K) 0.00399; (in isopropanol, 303.15 K) 0.00204.
For the molecule `O=P(Oc1ccccc1)(Oc1ccccc1)N1CCN(P(=O)(Oc2ccccc2)Oc2ccccc2)CC1`, the solubility (mole fraction) stood at 0.00567 (in dichloromethane, 283.15 K); 0.00642 (in dichloromethane, 288.15 K); 0.00731 (in dichloromethane, 293.15 K); 0.00843 (in dichloromethane, 298.15 K); 0.0103 (in dichloromethane, 303.15 K); 0.0133 (in dichloromethane, 308.15 K).
Under “in water, 298.15 K”, `O=c1[nH]cc(Cl)c(=O)[nH]1` yielded a solubility (mole fraction) of 0.000308.
As for `O=c1[nH]cc(F)c(=O)[nH]1`, the solubility (mole fraction) was determined as 0.000217 (in THF, 283.15 K); 0.000286 (in THF, 288.15 K); 0.000359 (in THF, 293.15 K); 0.000471 (in THF, 298.15 K); 0.000618 (in THF, 303.15 K); 0.000763 (in THF, 308.15 K). Also, the solubility (mole fraction) by setting is: (in THF, 313.15 K) 0.000961; (in THF, 318.15 K) 0.0012; (in THF, 323.15 K) 0.00151; (in water, 298.15 K) 0.00248.
`O=C1Nc2ccc(Cl)cc2C(c2ccccc2Cl)=NC1O` (stereo unspecified): the solubility (mole fraction) amounted to 0.0958 (in PEG-200, 303.2 K) and 3e-06 (in water, 303.2 K).
With `C1=Cc2nc1c(-c1ccccc1)c1ccc([nH]1)c(-c1ccccc1)c1nc(c(-c3ccccc3)c3ccc([nH]3)c2-c2ccccc2)C=C1`, the solubility (mole fraction) by setting is: (in ethanol, 303.2 K) 1.76e-06; (in ethanol, 313.2 K) 2.31e-06; (in ethanol, 323.2 K) 3.06e-06; (in ethanol, 333.2 K) 4.01e-06.
The molecule `c1ccc(-c2cnc(-c3ccccc3)o2)cc1` gave a solubility (mole fraction) (in acetone, 298.15 K) of 0.29; a solubility (mole fraction) (in ethanol, 298.15 K) of 0.04; a solubility (mole fraction) (in water, 298.15 K) of 1.41e-07.
Consider `CO[C@H]1O[C@H](CO)[C@@H](O)[C@H](O)[C@H]1O`, for which the solubility (mole fraction) is, setting by setting: (in methanol, 293.15 K) 0.00941; (in methanol, 298.15 K) 0.0109; (in methanol, 303.15 K) 0.0128; (in methanol, 308.18 K) 0.015; (in methanol, 313.15 K) 0.0175; (in methanol, 318.15 K) 0.02.
`COc1cc(/C=C/C(=O)O)cc(OC)c1O`: the solubility (mole fraction) is 0.147 (in DMSO, 298.15 K); 0.149 (in DMSO, 303.15 K); 0.152 (in DMSO, 308.15 K); 0.155 (in DMSO, 313.15 K); 0.158 (in DMSO, 318.15 K); 0.00586 (in ethylene glycol, 298.15 K). Also, the solubility (mole fraction) runs as follows: (in ethylene glycol, 303.15 K) 0.0066; (in ethylene glycol, 308.15 K) 0.0075; (in ethylene glycol, 313.15 K) 0.00848; (in ethylene glycol, 318.15 K) 0.0094.
For the molecule `Cc1cnc(NC(=O)C2=C(O)c3ccccc3S(=O)(=O)N2C)s1`, the solubility (mole fraction) runs as follows: (in methanol, 293.15 K) 4.02e-05; (in methanol, 298.15 K) 4.87e-05 and 3.93e-05; (in methanol, 303.15 K) 5.88e-05; (in methanol, 308.15 K) 7.04e-05; (in methanol, 313.15 K) 8.46e-05; (in water, 298.15 K) 4.23e-06.
For the molecule `Cc1ccc(-c2cc(C(F)(F)F)nn2-c2ccc(S(N)(=O)=O)cc2)cc1`, the solubility (mole fraction) came to 7.36e-08 (in water, 293.2 K); 8.02e-08 (in water, 298.2 K); 9.16e-08 (in water, 303.2 K); 1.27e-07 (in water, 308.2 K); 1.44e-07 (in water, 313.2 K).
`O=[N+]([O-])c1ccc(N/N=C/c2cccs2)c([N+](=O)[O-])c1` displayed a solubility (mole fraction) (in water, 298.15 K) of 7e-09.
